Starred links: 1 amine or outer side, 2 acyl side, 3 side chain; linkers in the order of their positions; H or OH if unused. Non-standard residues stand in square brackets, D forms with d. Residues, ends and D or L forms follow the SMILES beside them. *: point of attachment. Pipz(1-CH2CO,4-CH2CH2NH) = O=C(CN1CCN(CCN[*:1])CC1)[*:2]; C18 diacid = O=C(O)CCCCCCCCCCCCCCCCC(=O)*; γGlu = O=C(O)[C@H](CCC(=O)[*:2])N[*:1]; 2Pal = N[C@@H](Cc1ccccn1)C(=O)O; NMeL = CN[C@@H](CC(C)C)C(=O)O; Nle = CCCC[C@H](N)C(=O)O; Sar = CNCC(=O)O
What was measured:
Type in all cases: cell-based
human NMUR1 receptor = biological target: T1, human NMUR1 receptor (Homo sapiens, UniProt Q9HB89); assay: IP1 Gq HTRF assay, activation of human NMUR1 in buffer; details: CHO-K1 cells expressing human NMUR1, stimulation buffer with 0.1% BSA; read-out: EC50 (hNMUR1) buffer
T1 construct: expressed in transfected cells; host or cells: CHO-K1
T1 sequence (Q9HB89 1-426): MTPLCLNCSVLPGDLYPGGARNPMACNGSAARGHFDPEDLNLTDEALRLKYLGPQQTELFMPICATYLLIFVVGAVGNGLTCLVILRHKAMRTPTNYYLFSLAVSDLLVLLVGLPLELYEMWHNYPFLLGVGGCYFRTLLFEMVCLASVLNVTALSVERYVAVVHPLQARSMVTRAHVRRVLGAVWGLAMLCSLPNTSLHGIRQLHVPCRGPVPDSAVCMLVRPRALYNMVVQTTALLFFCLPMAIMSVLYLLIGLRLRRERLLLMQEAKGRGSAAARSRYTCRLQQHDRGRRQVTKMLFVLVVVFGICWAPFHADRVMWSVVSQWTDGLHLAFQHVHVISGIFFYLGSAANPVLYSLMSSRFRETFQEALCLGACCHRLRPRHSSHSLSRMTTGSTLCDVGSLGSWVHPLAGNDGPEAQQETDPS
Source text: (§1) Example 3: IP1 Gq HTRF Assay Activation of Human NMUR2 or Human NMUR1 in Buffer Application of the Homogenous Time Resolved Fluorescence (HTRF) technology optimized for Gq coupled receptors has been described in detail in the Cisbio IP-One Gq kit manual. In brief, a FRET signal (FRET: fluorescence resonance energy transfer) is generated between the donor label of an IP-One antibody (anti-IP1-Tb) and the acceptor label of a tagged IP-One (IP1-d2). Agonism of a Gq coupled receptor increases intracellular IP-One, which competes with labeled IP-One and leads to a reduction of the FRET signal. Frozen stocks of CHO-K1 cells stably expressing the human NMUR1 or NMUR2 receptor were thawed and 5000 cells were seeded in culture medium (HAM'S F12, 10% FCS) into each well of a 384-well assay plate. After seeding, cells were incubated for 24 h in a humidified incubator at 37° C. and 5% CO2. Next, cells were washed once with 50 μL of wash buffer (20 mM Hepes, 1×HBSS, pH 7.4), followed by addition of either 10 μL of stimulation buffer (20 mM Hepes, 1×HBSS, 50 mM LiCl, 0.1% BSA, pH 7.4). Peptide agonists to be tested were dissolved in 100% DMSO and pre-diluted in stimulation buffer at a suitable concentration range for an 8 pt dose-response curve. 5 μL of peptide pre-dilution were then added to each well, followed by another 5 μL of stimulation buffer to give a final concentration of 1% DMSO. Samples were subsequently incubated for 1 hour in a humidified incubator at 37° C. After addition of 5 μL each of IP1-d2 and anti-IP1-Tb, samples were incubated for another 1 hour at room temperature and FRET signals (ratio 665 nm/620 nm) were measured. EC50 values were calculated by nonlinear regression using a 4-parameter sigmoidal curve fit.

human NMUR2 receptor [1] = biological target: T2, human NMUR2 receptor (Homo sapiens, UniProt Q9GZQ4); assay: IP1 Gq HTRF assay, activation of human NMUR2 in buffer; set-up: expressed in transfected cells; host or cells: CHO-K1; details: CHO-K1 cells expressing human NMUR2, stimulation buffer with 0.1% BSA; read-out: EC50 (hNMUR2) buffer
Source text: as §1

human NMUR2 receptor [2] = biological target: T2, human NMUR2 receptor; assay: IP1 Gq HTRF assay, activation of human NMUR2 in human plasma; set-up: expressed in transfected cells; host or cells: CHO-K1; details: CHO-K1 cells expressing human NMUR2, 100% human plasma; read-out: EC50 (hNMUR2) human plasma
Source text: Example 4: IP1 Gq HTRF Assay Activation of Human NMUR2 in Human Plasma Application of the Homogenous Time Resolved Fluorescence (HTRF) technology optimized for Gq coupled receptors has been described in detail in the Cisbio IP-One Gq kit manual. In brief, a FRET signal is generated between the donor label of an IP-One antibody (anti-IP1-Tb) and the acceptor label of a tagged IP-One (IP1-d2). Agonism of a Gq coupled receptor increases intracellular IP-One, which competes with labeled IP-One and leads to a reduction of the FRET signal. Frozen stocks of CHO-K1 cells stably expressing the human NMUR1 receptor or human NMUR2 receptor were thawed and 5000 cells were seeded in culture medium (HAM'S F12, 10% FCS) into each well of a 384-well assay plate. After seeding, cells were incubated for 24 h in a humidified incubator at 37° C. and 5% CO2. Next, cells were washed once with […] of wash buffer (20 mM Hepes, 1×HBSS, pH 7.4), followed by addition of […] (100% human plasma, 50 mM LiCl). Peptide agonists to be tested were dissolved in 100% DMSO and pre-diluted in plasma at a suitable concentration range for an 8 pt dose-response curve. 5 μL of peptide pre-dilution were then added to each well, followed by another 5 μL of plasma to give a final concentration of 1% DMSO. Samples were subsequently incubated for 1 hour in a humidified incubator at 37° C. The plasma solution was replaced by 20 μL of stimulation buffer. After addition of 5 μL each of IP1-d2 and anti-IP1-Tb, samples were incubated for another 1 hour at room temperature and FRET signals (ratio 665 nm/620 nm) were measured. EC50 values were calculated by nonlinear regression using a 4-parameter sigmoidal curve fit.

T2 sequence (Q9GZQ4 whole entry): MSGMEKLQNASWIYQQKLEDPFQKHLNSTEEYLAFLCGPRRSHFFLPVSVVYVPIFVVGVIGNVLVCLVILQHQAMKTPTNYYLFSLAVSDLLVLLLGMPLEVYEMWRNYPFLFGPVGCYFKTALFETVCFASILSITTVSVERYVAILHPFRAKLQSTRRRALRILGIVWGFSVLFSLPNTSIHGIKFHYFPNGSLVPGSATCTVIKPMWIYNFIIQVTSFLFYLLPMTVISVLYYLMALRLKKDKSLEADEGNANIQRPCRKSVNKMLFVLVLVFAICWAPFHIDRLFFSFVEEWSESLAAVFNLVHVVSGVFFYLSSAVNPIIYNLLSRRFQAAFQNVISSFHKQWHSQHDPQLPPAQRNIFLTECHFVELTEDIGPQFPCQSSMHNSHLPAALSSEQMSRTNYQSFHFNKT

SMILES	EC50 (human NMUR1 receptor)	EC50 (human NMUR2 receptor [1])	EC50 (human NMUR2 receptor [2])
CCCC[C@H](NC(=O)[C@H](CC(C)C)N(C)C(=O)[C@H](Cc1ccccc1)NC(=O)[C@H](Cc1ccc(O)cc1)NC(=O)CN1CCN(CCNC(=O)CN(C)C(=O)CN(C)C(=O)CN(C)C(=O)CN(C)C(=O)CN(C)C(=O)CN(C)C(=O)CN(C)C(=O)CN(C)C(=O)CN(C)C(=O)CN(C)C(=O)CN(C)C(=O)CN(C)C(=O)CN(C)C(=O)CN(C)C(=O)CN(C)C(=O)CC[C@H](NC(=O)CC[C@H](NC(=O)CC[C@H](NC(=O)CCCCCCCCCCCCCCCCC(=O)O)C(=O)O)C(=O)O)C(=O)O)CC1)C(=O)N[C@@H](Cc1ccccn1)C(=O)N1CCC[C@H]1C(=O)N[C@@H](CCCNC(=N)N)C(=O)NCC(N)=O [Compound 56, C18DA-gGlu3-Sar15-AEPipAc-Tyr-Phe-NMeLeu-Nle-2Pal-Pro-Arg-Gly-NH2] ({C18 diacid-γGlu-γGlu-γGlu}-[Sar][Sar][Sar][Sar][Sar][Sar][Sar][Sar][Sar][Sar][Sar][Sar][Sar][Sar][Sar][Pipz(1-CH2CO,4-CH2CH2NH)]YF[NMeL][Nle][2Pal]PRG-NH2)	> 1000 nM	72 nM	432 nM
CCCC[C@H](NC(=O)[C@H](CC(C)C)N(C)C(=O)[C@H](Cc1ccccc1)NC(=O)[C@H](Cc1ccc(O)cc1)NC(=O)CN1CCN(CCNC(=O)CN(C)C(=O)CN(C)C(=O)CN(C)C(=O)CN(C)C(=O)CN(C)C(=O)CN(C)C(=O)CN(C)C(=O)CN(C)C(=O)CN(C)C(=O)CN(C)C(=O)CN(C)C(=O)CN(C)C(=O)CC[C@H](NC(=O)CC[C@H](NC(=O)CC[C@H](NC(=O)CC[C@H](NC(=O)CCCCCCCCCCCCCCCCC(=O)O)C(=O)O)C(=O)O)C(=O)O)C(=O)O)CC1)C(=O)N[C@@H](CCCNC(=N)N)C(=O)N1CCC[C@H]1C(=O)N[C@@H](CCCNC(=N)N)C(=O)NCC(N)=O [Compound 2, C18DA-gGlu4-Sar12-AEPipAc-Tyr-Phe-NMeLeu-Nle-Arg-Pro-Arg-Gly-NH2]	220 nM	1.1 nM	3.7 nM
CCCC[C@H](NC(=O)[C@H](CC(C)C)N(C)C(=O)[C@H](Cc1ccccc1)NC(=O)[C@H](Cc1ccc(O)cc1)NC(=O)CN1CCN(CCNC(=O)CN(C)C(=O)CN(C)C(=O)CN(C)C(=O)CN(C)C(=O)CN(C)C(=O)CN(C)C(=O)CN(C)C(=O)CN(C)C(=O)CN(C)C(=O)CN(C)C(=O)CN(C)C(=O)CN(C)C(=O)CC[C@H](NC(=O)CC[C@H](NC(=O)CC[C@H](NC(=O)CC[C@H](NC(=O)CCCCCCCCCCCCCCCCCCC(=O)O)C(=O)O)C(=O)O)C(=O)O)C(=O)O)CC1)C(=O)N[C@@H](CCCN)C(=O)N(C)[C@@H](C)C(=O)N[C@@H](CCCNC(=N)N)C(=O)NCC(N)=O [Compound 13, C20DA-gGlu4-Sar12-AEPipAc-Tyr-Phe-NMeLeu-Nle-Orn-NMeAla-Arg-Gly-NH2]	1200 nM	3.5 nM	10.2 nM
CCCC[C@H](NC(=O)[C@H](CC(C)C)N(C)C(=O)[C@H](Cc1ccccc1)NC(=O)[C@H](Cc1ccc(O)cc1)NC(=O)CN1CCN(CCNC(=O)CN(C)C(=O)CN(C)C(=O)CN(C)C(=O)CN(C)C(=O)CN(C)C(=O)CN(C)C(=O)CN(C)C(=O)CN(C)C(=O)CN(C)C(=O)CN(C)C(=O)CN(C)C(=O)CN(C)C(=O)CC[C@H](NC(=O)CC[C@H](NC(=O)CC[C@H](NC(=O)CC[C@H](NC(=O)CCCCCCCCCCCCCCCCCCC(=O)O)C(=O)O)C(=O)O)C(=O)O)C(=O)O)CC1)C(=O)N[C@@H](CCCNC(=N)N)C(=O)N1CCC[C@H]1C(=O)N[C@@H](CCCNC(=N)N)C(=O)NCC(N)=O [Compound 39, C20DA-gGlu4-Sar12-AEPipAc-Tyr-Phe-NMeLeu-Nle-Arg-Pro-Arg-Gly-NH2]	190 nM	2.5 nM	10.4 nM
CCCC[C@H](NC(=O)[C@H](CC(C)C)N(C)C(=O)[C@H](Cc1ccccc1)NC(=O)[C@H](Cc1ccc(O)cc1)NC(=O)CN1CCN(CCNC(=O)CN(C)C(=O)CN(C)C(=O)CN(C)C(=O)CN(C)C(=O)CN(C)C(=O)CN(C)C(=O)CN(C)C(=O)CN(C)C(=O)CN(C)C(=O)CN(C)C(=O)CN(C)C(=O)CN(C)C(=O)CN(C)C(=O)CN(C)C(=O)CN(C)C(=O)CC[C@H](NC(=O)CC[C@H](NC(=O)CC[C@H](NC(=O)CCCCCCCCCCCCCCCCCCC(=O)O)C(=O)O)C(=O)O)C(=O)O)CC1)C(=O)N[C@@H](CCCCN)C(=O)N1CCC[C@H]1C(=O)N[C@@H](CCCNC(=N)N)C(=O)NCC(N)=O [Compound 49, C20DA-gGlu3-Sar15-AEPipAc-Tyr-Phe-NMeLeu-Nle-Lys-Pro-Arg-Gly-NH2] (HELM PEPTIDE1{[O=C(O)CCCCCCCCCCCCCCCCCCC(=O)[*:2]].[gGlu].[gGlu].[gGlu].[Sar].[Sar].[Sar].[Sar].[Sar].[Sar].[Sar].[Sar].[Sar].[Sar].[Sar].[Sar].[Sar].[Sar].[Sar].[O=C(CN1CCN(CCN[*:1])CC1)[*:2]].Y.F.[meL].[Nle].K.P.R.G.[am]}$$$$V2.0)	1300 nM	11 nM	25.2 nM
CCCC[C@H](NC(=O)[C@H](CC(C)C)N(C)C(=O)[C@H](Cc1ccccc1)NC(=O)[C@H](Cc1ccc(O)cc1)NC(=O)CN1CCN(CCNC(=O)CN(C)C(=O)CN(C)C(=O)CN(C)C(=O)CN(C)C(=O)CN(C)C(=O)CN(C)C(=O)CN(C)C(=O)CN(C)C(=O)CN(C)C(=O)CN(C)C(=O)CN(C)C(=O)CN(C)C(=O)CN(C)C(=O)CN(C)C(=O)CN(C)C(=O)CC[C@H](NC(=O)CC[C@H](NC(=O)CC[C@H](NC(=O)CCCCCCCCCCCCCCCCCCC(=O)O)C(=O)O)C(=O)O)C(=O)O)CC1)C(=O)N[C@@H](CCCN)C(=O)NCCC(=O)N[C@@H](CCCNC(=N)N)C(=O)NCC(N)=O [Compound 30, C20DA-gGlu3-Sar15-AEPipAc-Tyr-Phe-NMeLeu-Nle-Orn-bAla-Arg-Gly-NH2] (HELM PEPTIDE1{[O=C(O)CCCCCCCCCCCCCCCCCCC(=O)[*:2]].[gGlu].[gGlu].[gGlu].[Sar].[Sar].[Sar].[Sar].[Sar].[Sar].[Sar].[Sar].[Sar].[Sar].[Sar].[Sar].[Sar].[Sar].[Sar].[O=C(CN1CCN(CCN[*:1])CC1)[*:2]].Y.F.[meL].[Nle].[Orn].[bAla].R.G.[am]}$$$$V2.0)	> 1000 nM	67 nM	725 nM

Source: patent US20240279278A1, “NMU RECEPTOR 2 AGONISTS” (Boehringer Ingelheim International GmbH, priority 2023, published 2024)
